Test system: patients with fasting triglyceride levels >500 mg/dL
Experiment: MARINE study: 12-week placebo-controlled study of AMR101, metabolic syndrome subset
Assay type: in vivo, human
Conditions: 12 weeks, subjects with metabolic syndrome
Procedure: A multi-center, placebo-controlled randomized, double-blind, 12-week study with an open-label extension was performed to evaluate the efficacy and safety of AMR101 in patients with fasting triglyceride levels >500 mg/dL. The primary objective of the study was to determine the efficacy of AMR101 2 g daily and 4 g daily, compared to placebo, in lowering fasting TG levels in patients with fasting TG levels 500 mg/dL and 1500 mg/dL (5.65 mmol/L and 16.94 mmol/L).
The population for this study was men and women (women of childbearing potential will need to be on contraception or practice abstinence) >18 years of age with a body mass index ≤45 kg/m^2 who were not on lipid-altering therapy or were currently on lipid-altering therapy. Patients currently on statin therapy (with or without ezetimibe) were evaluated by the investigator as to whether this therapy can be safely discontinued at screening, or if it should be continued. If statin therapy (with or without ezetimibe) was to be continued, dose(s) must have been stable […] prior to randomization. Patients taking non-statin, lipid-altering medications (niacin >200 mg/day, fibrates, fish oil, other products containing omega-3 fatty acids, or other herbal products or dietary supplements with potential lipid-altering effects), either alone or in combination with statin therapy (with or without ezetimibe), must have been able to safely discontinue non-statin, lipid-altering therapy at screening.
Approximately 240 patients were randomized at approximately 50 centers in North America, South America, Central America, Europe, India, and South Africa. The study was a 58- to 60-week, Phase 3, multi-center study consisting of 3 study periods: (1) A 6- to 8-week screening period that included a diet and lifestyle stabilization and washout period and a TG qualifying period; (2) A 12-week, double-blind, randomized, placebo-controlled treatment period; and (3) A 40-week, open-label, extension period.
After confirmation of qualifying fasting TG values, eligible patients entered a 12-week, randomized, double-blind treatment period. At Visit 4 (Week 0), patients were randomly assigned to 1 of the following treatment groups: • AMR101 2 g daily, • AMR101 4 g daily, or • Placebo.
Eligible patients were randomly assigned at Visit 4 (Week 0) to receive orally AMR101 2 g daily, AMR101 4 g daily, or placebo for the 12-week double-blind treatment period. AMR101 was provided in 1 g liquid-filled, oblong, gelatin capsules. The matching placebo capsule was filled with light liquid paraffin and contained 0 g of AMR101. During the double-blind treatment period, patients took 2 capsules (AMR101 or matching placebo) in the morning and 2 in the evening for a total of 4 capsules per day. Patients in the AMR101 2 g/day treatment group received 1 AMR101 1 g capsule and 1 matching placebo capsule in the morning and in the evening. Patients in the AMR101 4 g/day treatment group received 2 AMR101 1 g capsules in the morning and evening.
The primary efficacy variable for the double-blind treatment period was percent change in TG from baseline to Week 12 endpoint. […]

CC/C=C\C/C=C\C/C=C\C/C=C\C/C=C\CCCC(=O)OCC [AMR101, ethyl eicosapentaenoate]
Apo B, Change from Baseline, % (2 g/day, No statins): 2.8% | Apo B, End of Treatment, median (IQR) (2 g/day, No statins): 121 mg/dL | Apo B, Median % Change From Baseline vs Placebo (2 g/day, No statins): −1.8% | HDL-C, Change from Baseline, % (2 g/day, No statins): 0.0% | HDL-C, End of Treatment, median (IQR) (2 g/day, No statins): 26 mg/dL | HDL-C, Median % Change From Baseline vs Placebo (2 g/day, No statins): 0.3% | LDL-C, Change from Baseline, % (2 g/day, No statins): 1.9% | LDL-C, End of Treatment, median (IQR) (2 g/day, No statins): 95 mg/dL | LDL-C, Median % Change From Baseline vs Placebo (2 g/day, No statins): 2.8% | Non-HDL-C, Change from Baseline, % (2 g/day, No statins): −1.1% | Non-HDL-C, End of Treatment, median (IQR) (2 g/day, No statins): 218 mg/dL | Non-HDL-C, Median % Change From Baseline vs Placebo (2 g/day, No statins): −7.8% | TG, Change from Baseline, % (2 g/day, No statins): −10.1% | TG, End of Treatment, median (IQR) (2 g/day, No statins): 586 mg/dL | TG, Median % Change From Baseline vs Placebo (2 g/day, No statins): −17.2% | hsCRP, Change from Baseline, % (2 g/day, No statins): 38.0% | hsCRP, End of Treatment, median (IQR) (2 g/day, No statins): 2.5 (3.10) mg/L | hsCRP, Median % Change From Baseline vs Placebo (2 g/day, No statins): −7.1% | Apo B, Change from Baseline, % (2 g/day, Statins): −0.9% | Apo B, End of Treatment, median (IQR) (2 g/day, Statins): 105 mg/dL | Apo B, Median % Change From Baseline vs Placebo (2 g/day, Statins): −9.1% | HDL-C, Change from Baseline, % (2 g/day, Statins): 0.0% | HDL-C, End of Treatment, median (IQR) (2 g/day, Statins): 30 mg/dL | HDL-C, Median % Change From Baseline vs Placebo (2 g/day, Statins): 4.2% | LDL-C, Change from Baseline, % (2 g/day, Statins): −3.8% | LDL-C, End of Treatment, median (IQR) (2 g/day, Statins): 77.5 mg/dL | LDL-C, Median % Change From Baseline vs Placebo (2 g/day, Statins): 6.2% | Non-HDL-C, Change from Baseline, % (2 g/day, Statins): 10.1% | Non-HDL-C, End of Treatment, median (IQR) (2 g/day, Statins): 206 mg/dL | Non-HDL-C, Median % Change From Baseline vs Placebo (2 g/day, Statins): −10.9% | TG, Change from Baseline, % (2 g/day, Statins): 14.5% | TG, End of Treatment, median (IQR) (2 g/day, Statins): 708 mg/dL | TG, Median % Change From Baseline vs Placebo (2 g/day, Statins): −33.0% | hsCRP, Change from Baseline, % (2 g/day, Statins): 14.3% | hsCRP, End of Treatment, median (IQR) (2 g/day, Statins): 1.6 (2.20) mg/L | hsCRP, Median % Change From Baseline vs Placebo (2 g/day, Statins): −36.6% | Apo B, Change from Baseline, % (2 g/day, Total): 2.5% | Apo B, End of Treatment, median (IQR) (2 g/day, Total): 117 mg/dL | Apo B, Median % Change From Baseline vs Placebo (2 g/day, Total): −3.3% | HDL-C, Change from Baseline, % (2 g/day, Total): 0.0% | HDL-C, End of Treatment, median (IQR) (2 g/day, Total): 28 mg/dL | HDL-C, Median % Change From Baseline vs Placebo (2 g/day, Total): 0.9% | LDL-C, Change from Baseline, % (2 g/day, Total): −2.5% | LDL-C, End of Treatment, median (IQR) (2 g/day, Total): 94 mg/dL | LDL-C, Median % Change From Baseline vs Placebo (2 g/day, Total): 3.6% | Non-HDL-C, Change from Baseline, % (2 g/day, Total): 0.0% | Non-HDL-C, End of Treatment, median (IQR) (2 g/day, Total): 214 mg/dL | Non-HDL-C, Median % Change From Baseline vs Placebo (2 g/day, Total): −8.3% | TG, Change from Baseline, % (2 g/day, Total): −4.3% | TG, End of Treatment, median (IQR) (2 g/day, Total): 606 mg/dL | TG, Median % Change From Baseline vs Placebo (2 g/day, Total): −19.1% | hsCRP, Change from Baseline, % (2 g/day, Total): 25.1% | hsCRP, End of Treatment, median (IQR) (2 g/day, Total): 2.4 (3.20) mg/L | hsCRP, Median % Change From Baseline vs Placebo (2 g/day, Total): −14.5% | Apo B, Change from Baseline, % (4 g/day, No statins): −4.3% | Apo B, End of Treatment, median (IQR) (4 g/day, No statins): 123 mg/dL | Apo B, Median % Change From Baseline vs Placebo (4 g/day, No statins): −9.2% | HDL-C, Change from Baseline, % (4 g/day, No statins): 0.0% | HDL-C, End of Treatment, median (IQR) (4 g/day, No statins): 25 mg/dL | HDL-C, Median % Change From Baseline vs Placebo (4 g/day, No statins): −4.2% | LDL-C, Change from Baseline, % (4 g/day, No statins): −1.5% | LDL-C, End of Treatment, median (IQR) (4 g/day, No statins): 92 mg/dL | LDL-C, Median % Change From Baseline vs Placebo (4 g/day, No statins): −2.0% | Non-HDL-C, Change from Baseline, % (4 g/day, No statins): −9.9% | Non-HDL-C, End of Treatment, median (IQR) (4 g/day, No statins): 220 mg/dL | Non-HDL-C, Median % Change From Baseline vs Placebo (4 g/day, No statins): −18.5% | TG, Change from Baseline, % (4 g/day, No statins): −26.6% | TG, End of Treatment, median (IQR) (4 g/day, No statins): 582 mg/dL | TG, Median % Change From Baseline vs Placebo (4 g/day, No statins): −28.5% | hsCRP, Change from Baseline, % (4 g/day, No statins): 0.0% | hsCRP, End of Treatment, median (IQR) (4 g/day, No statins): 2.3 (2.30) mg/L | hsCRP, Median % Change From Baseline vs Placebo (4 g/day, No statins): −78.0% | hsCRP, Median % Change From Baseline vs Placebo (4 g/day, No statins, listed as IPE): −27.6% | Apo B, Change from Baseline, % (4 g/day, Statins): −1.6% | Apo B, End of Treatment, median (IQR) (4 g/day, Statins): 100 mg/dL | Apo B, Median % Change From Baseline vs Placebo (4 g/day, Statins): −9.0% | HDL-C, Change from Baseline, % (4 g/day, Statins): −5.2% | HDL-C, End of Treatment, median (IQR) (4 g/day, Statins): 29 mg/dL | HDL-C, Median % Change From Baseline vs Placebo (4 g/day, Statins): 0.3% | LDL-C, Change from Baseline, % (4 g/day, Statins): −11.4% | LDL-C, End of Treatment, median (IQR) (4 g/day, Statins): 72.5 mg/dL | LDL-C, Median % Change From Baseline vs Placebo (4 g/day, Statins): −4.3% | Non-HDL-C, Change from Baseline, % (4 g/day, Statins): −7.6% | Non-HDL-C, End of Treatment, median (IQR) (4 g/day, Statins): 172 mg/dL | Non-HDL-C, Median % Change From Baseline vs Placebo (4 g/day, Statins): −27.4% | TG, Change from Baseline, % (4 g/day, Statins): −29.1% | TG, End of Treatment, median (IQR) (4 g/day, Statins): 457 mg/dL | TG, Median % Change From Baseline vs Placebo (4 g/day, Statins): −62.6% | hsCRP, Change from Baseline, % (4 g/day, Statins): −35.1% | hsCRP, End of Treatment, median (IQR) (4 g/day, Statins): 2.7 (3.70) mg/L | hsCRP, Median % Change From Baseline vs Placebo (4 g/day, Statins): −27.6% | hsCRP, Median % Change From Baseline vs Placebo (4 g/day, Statins, listed as IPE): −78.0% | Apo B, Change from Baseline, % (4 g/day, Total): −3.5% | Apo B, End of Treatment, median (IQR) (4 g/day, Total): 120 mg/dL | HDL-C, Change from Baseline, % (4 g/day, Total): 0.0% | HDL-C, End of Treatment, median (IQR) (4 g/day, Total): 26 mg/dL | HDL-C, Median % Change From Baseline vs Placebo (4 g/day, Total): −3.0% | LDL-C, Change from Baseline, % (4 g/day, Total): −4.1% | LDL-C, End of Treatment, median (IQR) (4 g/day, Total): 89 mg/dL | Non-HDL-C, Change from Baseline, % (4 g/day, Total): −9.6% | Non-HDL-C, End of Treatment, median (IQR) (4 g/day, Total): 207 mg/dL | TG, Change from Baseline, % (4 g/day, Total): −26.8% | TG, End of Treatment, median (IQR) (4 g/day, Total): 504 mg/dL | hsCRP, Change from Baseline, % (4 g/day, Total): −2.9% | hsCRP, End of Treatment, median (IQR) (4 g/day, Total): 2.4 (2.95) mg/L | Apo B, Median % Change From Baseline vs Placebo (4 g/day, Total, listed as IPE): −9.1% | LDL-C, Median % Change From Baseline vs Placebo (4 g/day, Total, listed as IPE): −3.2% | Non-HDL-C, Median % Change From Baseline vs Placebo (4 g/day, Total, listed as IPE): −19.9% | TG, Median % Change From Baseline vs Placebo (4 g/day, Total, listed as IPE): −35.0% | hsCRP, Median % Change From Baseline vs Placebo (4 g/day, Total, listed as IPE): −40.0%
